The test system of experiment [1] is wound chambers in healing impaired rats (granulation tissue formation). The experiment can be described thus: Wound chamber model in cortisone acetate treated (healing impaired) rats, I.M. injection. The format is in vivo. On the procedure:
(§1) The chambers were removed at day 15 and 29.
After implantation of the chambers, the rats were subsequently injected with Cortisone Acetate (10 mg I.M. daily, Cortone Acetate, Merck) to impair the healing response. After allowing for encapsulation of the chambers, the rats were injected I.M. (in the opposite leg from the cortisone injection) with 0.1 ml of either a saline solution containing 10 mg/ml of glycyl-L-histidyl-L-lysine:copper(II) (2:1 molar ratio) or saline.
After implantation of the chambers, the rats were subsequently injected with Cortisone Acetate (10 mg I.M. daily, Cortone Acetate, Merck) to impair the healing response. After allowing for encapsulation of the chambers, the rats were injected I.M. (in the opposite leg from the cortisone injection) with 0.1 ml of either a saline solution containing 19 mg/ml of glycyl-L-histidyl-L-lysyl-valyl-phenylalanly-valine:copper(II) or saline.
After implantation of the chambers, the rats were subsequently injected with Cortisone Acetate (10 mg I.M. daily, Cortone Acetate, Merck) to impair the healing response. After allowing for encapsulation of the chambers, the rats were injected I.M. (in the opposite leg from the cortisone injection) with 0.1 ml of the copper(II) compounds listed at the dosage specified in Table 4, or saline.

In experiment [2] the test system is wound chambers in rats (granulation tissue formation). Put plainly: Wound chamber model in rats, compounds injected directly into the wound chambers.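 Also: compounds given as 0.2 ml injections into encapsulated wound chambers in rats on set days, chambers removed at day 15 or 29, contents measured per chamber versus saline-injected chambers.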
Experiment [3] relates to 2.0x2.0 cm full thickness skin defects in pigs. The experiment can be described thus: Full thickness skin defects in pigs, I.M. injection, punch biopsy analysis. The format is in vivo, domestic pigs. The conditions noted are these: pig. On the procedure: The systemic application of GHL-Cu increases the formation of granulation tissue in pigs. Two domestic pigs approximately 29-31 pounds, about 8 weeks old, were anesthetized with Ketamine (30 mg/Kg) and Rompum (5 mg/Kg). A series of full thickness skin defects measuring 2.0×2.0 cm were created on the backs of each pig and bandaged with gauze and adhesive tape. One pig was treated with I.M. injections of strerile saline and the other with a solution of GHL-Cu (30 mg/ml). Each pig received 1.0 ml injections of either the saline or GHL-Cu solution on days 0, 1, 2, 5, 6, 7, 8, 9, 12, and 13.
Punch biopsy samples were taken from the centers of the healing wounds on day 7 and day 12 and analyzed for the biochemical parameters of granulation tissue and described in Example 10.

The subject of experiment [4] is wound chambers in normal rats (granulation tissue formation). The experiment can be described thus: Subcutaneous stainless steel wound chamber model, I.M. injection, normal rats. The format is in vivo.
Source text: The subcutaneous implantation of stainless steel wound chambers in rats provides a model for the healing of open cavity wounds. This model in many ways mimics the early events in the formation of granulation tissue found in many types of wounds and surgical defects. Implantation of these chambers triggers a series of responses which reflect the series of phases involved in wound healing--fibrin clot formation, infiltration of white cells, collagen synthesis, and new blood vessel formation.
as §1
After allowing for encapsulation of the chambers, the rats were injected I.M. with 0.1 ml of either a saline solution containing 10 mg/ml glycyl-L-histidyl-L-lysine:copper(II) (2:1 molar ratio) or saline.

The subject of experiment [5] is 15 mm full-thickness excision wound in mice. Put plainly: Full thickness defect model in mice, I.M. injection. Format: in vivo. The source says:
Following an acclimation period, mice are anesthetized with I.P. pentobarbital and prepped for surgery. The hair is plucked from a wide area of the mid-back. An ink stamp bearing a 15 mm diameter circle is used to mark the skin for subsequent full-thickness excision. Tissue is excised to the fascia underlying the paniculus carnosus muscle. Following excision, hemostasis is achieved through irrigation and the use of sterile gauze pads.
Mice received a first I.M. treatment of GHL-Cu following hemostasis, Day 0. Injections consisted of 0.1 mg of GHL-Cu in a volume of 0.1 ml. Mice used as controls received injections of saline. Injections were repeated on days 1, 2, 3, 6, 7, 8, 9, 10, and 13.
The residual wound surface area is measured on days 1, 7, 10 and 14. The final comparison is performed on Day 14. Table 5 below illustrates that I.M. injection of GHL-Cu resulted is an approximately 75% smaller residual wound size at 14 days.

[6] abbreviates: Table 8 part A, 2.0 mg/injection, saline control 4.5 ± 1.0.
Where [7] appears, read: Table 8 part A, 2.0 mg/injection, saline control 49 ± 9.
Setting [8] is: Table 8 part A, 2.0 mg/injection, saline control 75 ± 11.
[9] abbreviates: Table 8 part A, 2.0 mg/injection, saline control 703 ± 244.
Setting [10] is: healing impaired (cortisone) rats, 0.3 mg/injection, saline control 502 ± 145.
Setting [11] is: cortisone treated rats, 0.1 ml of 10 mg/ml.

We go through 14 compounds from patent publication US5164367A, “Method of using copper(II) containing compounds to accelerate wound healing” (ProCyte Corporation, priority 1990, dated 1992).

For `O=S(=O)([O-])[O-].[Cu+2]` [CuSO4, cupric sulfate], the COLLAGEN in experiment [1] (healing impaired (cortisone) rats, 0.2 mg/injection, saline control 502 ± 145) is listed as 976 ± 343 μg HP/chamber.
In the case of “alanylL-histidyl-L-lysine:copper(II) [AHL:Cu]”, in experiment [2] (setting [6]), the ANGIOGENESIS was determined as 10.2 ± 6.5 Units AP/chamber. Moreover, in experiment [2] (setting [7]), the PROTEIN is reported as 46 ± 14 mg/chamber. Also, the “WET WEIGHT” value in experiment [2] (setting [8]) stood at 74 ± 22 mg. Besides, the COLLAGEN in experiment [2] (setting [9]) stood at 1565 ± 520 μg HP/chamber.
carnosine:copper(II) [CARN:Cu] showed a COLLAGEN in experiment [1] (setting [10]) of 832 ± 174 μg HP/chamber.
Take citrate:copper(II) [CITRATE:Cu]: the COLLAGEN in experiment [1] (healing impaired (cortisone) rats, 0.5 mg/injection, saline control 502 ± 145) came out at 976 ± 343 μg HP/chamber.
With “glycyl-L-histidyl-L-lysine:copper(II) [GHL:Cu]”, the “WET WEIGHT” value in experiment [3] (30 mg/injection, punch biopsies (day 7 and day 12), saline control 121 ± 7) came to 148 ± 11 mg. In addition, the ANGIOGENESIS was 2.2 ± 1.2 Units AP/chamber in experiment [3] (30 mg/injection, punch biopsies, saline control 0.4 ± 0.1); 3.0 ± 1.5 Units AP/chamber in experiment [4] (1.0 mg/injection, saline control 2.2 ± 1.1); 1.5 ± 1.6 Units AP/chamber in experiment [1] (healing impaired (cortisone) rats, 1.0 mg/injection, saline control 0.5 ± 0.3). The COLLAGEN in experiment [3] (30 mg/injection, punch biopsies, saline control 628 ± 182) worked out at 855 ± 20 μg HP/chamber; in experiment [4] (1.0 mg/injection, saline control 376 ± 86) it was 1273 ± 711 μg HP/chamber; in experiment [1] (healing impaired (cortisone) rats, 1.0 mg/injection, saline control 187 ± 101) it was 366 ± 74 μg HP/chamber. In addition, the “visual examination of granulation tissue level” value in experiment [3] (30 mg/injection, saline treated animal: level below the skin) is recorded as “raised above the level of the surrounding skin”. Further, the “weight, collagen content, and angiogenesis in the biopsies” value in experiment [3] (1.0 ml of 30 mg/ml per injection) is “significant increase”. Also, the PROTEIN in experiment [4] (1.0 mg/injection, saline control 36 ± 13) is 55 ± 19 mg/chamber; in experiment [1] (healing impaired (cortisone) rats, 1.0 mg/injection, saline control 11 ± 8), 25 ± 9 mg/chamber. Moreover, the “DRY WEIGHT” value in experiment [4] (1.0 mg/injection, saline control 51 ± 15) stood at 75 ± 25 mg; in experiment [1] (healing impaired (cortisone) rats, 1.0 mg/injection, saline control 20 ± 12) it was 35 ± 13 mg. The “biochemical healing parameters (vs saline)” value in experiment [4] (0.1 ml of 10 mg/ml) is “significantly increased”. In addition, the “healing response in healing impaired animals relative to normal animals” value in experiment [1] (setting [11]) is “increased the healing response in the healing impaired animals to the level found in the normal animals”. For the same compound, in experiment [1] (setting [11]), the “level of all the biochemical parameters examined compared to control animals” value is “increased”. Further, in experiment [5] (0.1 mg in 0.1 ml per injection, saline control 1.78 ± 2.56), the “RESIDUAL WOUND SURFACE AREA DAY 14” value came to 0.42 ± 0.60 SQ MM. The “smaller residual wound size at 14 days vs saline” value in experiment [5] (0.1 mg per injection, day 14) was “approximately 75%”.
With “glycyl-L-histidyl-L-lysyl-L-valyl-L-phenylalanyl-L-valine:copper(II) [GHLVFV:Cu]”, in experiment [1] (cortisone treated rats, 1.9 mg/injection, saline control 1.9 ± 0.4), the ANGIOGENESIS came out at 6.9 ± 6.1 Units AP/chamber. In experiment [1] (cortisone treated rats, 1.9 mg/injection, saline control 32 ± 4), this compound showed a PROTEIN of 45 ± 15 mg/chamber. Moreover, the “DRY WEIGHT” value in experiment [1] (cortisone treated rats, 1.9 mg/injection, saline control 65 ± 8) is recorded as 84 ± 28 mg. Also, the COLLAGEN in experiment [1] (cortisone treated rats, 1.9 mg/injection, saline control 502 ± 145) is 1279 ± 1001 μg HP/chamber. For the same compound, the “level of all the biochemical parameters examined” value in experiment [1] (cortisone treated rats, 0.1 ml of 19 mg/ml) was “increased”.
“glycylL-(3-methyl)histidyl-L-lysine:copper(II) [G(3-Me)HL:Cu]”: the ANGIOGENESIS in experiment [2] (setting [6]) was 8.9 ± 5.5 Units AP/chamber. Moreover, in experiment [2] (setting [7]), the PROTEIN was determined as 75 ± 9 mg/chamber. Further, in experiment [2] (setting [8]), the “WET WEIGHT” value came out at 125 ± 15 mg. For the same compound, in experiment [2] (setting [9]), the COLLAGEN is listed as 1996 ± 288 μg HP/chamber.
In the case of “glycylL-histidyl-L-lysine octyl amide:copper(II) [GHL-Octyl Amide:Cu]”, in experiment [2] (Table 7 part A, 2.6 mg/injection, saline control 5.3 ± 3.6), the ANGIOGENESIS is listed as 6.7 ± 1.3 Units AP/chamber. In experiment [2] (Table 7 part A, 2.6 mg/injection, saline control 47 ± 20), this compound had a PROTEIN of 47 ± 6 mg/chamber. In addition, the “WET WEIGHT” value in experiment [2] (Table 7 part A, 2.6 mg/injection, saline control 85 ± 30) is given as 101 ± 8 mg. The compound also returned a COLLAGEN in experiment [2] (Table 7 part A, 2.6 mg/injection, saline control 335 ± 132) of 1339 ± 265 μg HP/chamber.
Compound “glycylL-histidyl-L-lysine octyl ester:copper(II) [GHL-Octyl Ester:Cu]” returned an ANGIOGENESIS in experiment [2] (Table 7 part B, 2.6 mg/injection, saline control 4.5 ± 1.0) of 12.4 ± 3.6 Units AP/chamber. The same compound showed a PROTEIN in experiment [2] (Table 7 part B, 2.6 mg/injection, saline control 49 ± 9) of 66 ± 8 mg/chamber. In experiment [2] (Table 7 part B, 2.6 mg/injection, saline control 75 ± 11), the “WET WEIGHT” value came to 106 ± 8 mg. The compound also yielded a COLLAGEN in experiment [2] (Table 7 part B, 2.6 mg/injection, saline control 703 ± 244) of 1918 ± 565 μg HP/chamber.
“glycylL-histidyl-L-lysyl-L-tryptophan:copper(II) [GHLW:Cu]” registered an ANGIOGENESIS in experiment [2] (Table 7 part A, 3.1 mg/injection, saline control 5.3 ± 3.6) of 7.7 ± 1.6 Units AP/chamber. In addition, the “WET WEIGHT” value in experiment [2] (Table 7 part A, 3.1 mg/injection, saline control 85 ± 30) was determined as 94 ± 14 mg. This compound registered a COLLAGEN in experiment [2] (Table 7 part A, 3.1 mg/injection, saline control 335 ± 132) of 1508 ± 128 μg HP/chamber.
For the compound “glycylL-histidyl-caprolactam:copper(II) [GHCap:Cu]”, in experiment [2] (setting [6]), the ANGIOGENESIS is on record as 10.7 ± 3.1 Units AP/chamber. This compound also came in with a PROTEIN in experiment [2] (setting [7]) of 60 ± 11 mg/chamber. In addition, the “WET WEIGHT” value in experiment [2] (setting [8]) was 98 ± 13 mg. Also, in experiment [2] (setting [9]), the COLLAGEN is recorded as 1699 ± 365 μg HP/chamber.
In experiment [1] (setting [10]), “glycylglycyl-glycine:copper(II) [GGG:Cu]” gave a COLLAGEN of 829 ± 210 μg HP/chamber.
On to “histidylglycyl-L-lysine:copper(II) [HGL:Cu]”, for which, in experiment [2] (setting [6]), the ANGIOGENESIS was determined as 10.4 ± 3.9 Units AP/chamber. This compound also displayed a PROTEIN in experiment [2] (setting [7]) of 58 ± 9 mg/chamber. In experiment [2] (setting [8]), the “WET WEIGHT” value was determined as 104 ± 13 mg. The same compound showed a COLLAGEN in experiment [2] (setting [9]) of 2025 ± 456 μg HP/chamber.
In experiment [2] (Table 8 part B, 3.8 mg/injection, saline control 5.3 ± 3.6), “lysylL-histidyl-glycyl-L-valyl-L-phenylalanyl-L-valine:copper(II) [LHGVFV:Cu]” displayed an ANGIOGENESIS of 8.0 ± 1.3 Units AP/chamber. Besides, in experiment [2] (Table 8 part B, 3.8 mg/injection, saline control 47 ± 20), the PROTEIN amounted to 37 ± 9 mg/chamber. Further, the “WET WEIGHT” value in experiment [2] (Table 8 part B, 3.8 mg/injection, saline control 85 ± 30) was 95 ± 18 mg. Further, the COLLAGEN in experiment [2] (Table 8 part B, 3.8 mg/injection, saline control 335 ± 132) was 1630 ± 275 μg HP/chamber.
